Data as given in patent publication US20250042889A1, “3CLPRO PROTEASE INHIBITOR” (SHANGHAI QILU PHARMACEUTICAL RESEARCH AND DEVELOPMENT …, priority 2021, published 2025).

Biological target: SARS-COV-2 3CLpro/Mpro protease (Severe acute respiratory syndrome coronavirus 2 (2019-nCoV) (SARS-CoV-2), UniProt P0DTD1)
Experiment: Inhibitory effect on SARS-COV-2 3CLpro/Mpro protease by fluorescence resonance energy transfer
Format: biochemical
Conditions: activity intervals A-D, read-out: IC50 (nM), Inhibition on SARS-CoV-2 3CLpro/Mpro protease

Row | Structure (SMILES) | IC50
1 | Cc1cc(C(=O)N2C[C@H](Nc3c(C(=O)N4CCC5(CCC5)CC4)cc(Br)cc3[N+](=O)[O-])C3(CC3)C2)cc(=O)[nH]1 [Example 95] | 10 to 50 nM
2 | CNc1cncc(C(=O)N2CCC[C@@H](Nc3c(C(=O)N4CC(=O)NC(C)C4)cc(Br)cc3[N+](=O)[O-])C2)c1 (stereo partly shown) [Example 96] | 50 to 100 nM
3 | CNc1cncc(C(=O)N2CC(Nc3c(C(=O)N4CCN(CC(F)(F)F)CC4)cc(Br)cc3[N+](=O)[O-])C(F)(F)C2)c1 (stereo not shown) [Example 98] | 10 to 50 nM
4 | CNc1cncc(C(=O)N2CC(Nc3c(C(=O)N4CCN(CC(F)(F)F)C(=O)C4)cc(Br)cc3[N+](=O)[O-])C(F)(F)C2)c1 (stereo not shown) [Example 99] | 100 to 200 nM
5 | CNc1cncc(C(=O)N2CC(Nc3c(C(=O)N4C[C@H](C)C[C@H](C)C4)cc(Br)cc3[N+](=O)[O-])C(F)(F)C2)c1 (stereo partly shown) [Example 100] | 10 to 50 nM
6 | Cc1cc(C(=O)N2CC(Nc3c(C(=O)N4CCCCC4)cc(Br)cc3[N+](=O)[O-])C(F)(F)C2)cc(=O)[nH]1 (stereo not shown) [Example 101] | 50 to 100 nM
7 | CC1(Nc2c(C(=O)N3CCCCC3)cc(Br)cc2[N+](=O)[O-])CCCN(C(=O)c2cncc3ccccc23)C1 (stereo not shown) [Example 102] | 10 to 50 nM
8 | O=C(c1cc(Br)cc([N+](=O)[O-])c1N[C@@H]1CCCN(C(=O)c2cncc3cc(F)ccc23)C1)N1CCCCC1 [Example 103] | 10 to 50 nM
9 | O=C(c1cncc(Br)c1)N1CC(Nc2c(C(=O)N3CCC(F)(F)CC3)cc(Br)cc2[N+](=O)[O-])C(F)(F)C1 (stereo not shown) [Example 104] | 10 to 50 nM
10 | O=C(c1cc(Br)c[n+]([O-])c1)N1CCC[C@@H](Nc2c(C(=O)N3CCC(F)(F)CC3)cc(Br)cc2[N+](=O)[O-])C1 [Example 105] | 50 to 100 nM
11 | O=C(c1cc(Br)cnc1F)N1CCC[C@@H](Nc2c(C(=O)N3CCC(F)(F)CC3)cc(Br)cc2[N+](=O)[O-])C1 [Example 106] | 10 to 50 nM
12 | O=C(N[C@H]1CCCC[C@H]1Nc1c(C(=O)N2CCOCC2)cc(Br)cc1[N+](=O)[O-])c1cc(=O)[nH]c2ccccc12 [Example 107] | 10 to 50 nM
13 | Cc1cc(C(=O)N2CCC[C@@H](Nc3c(C(=O)N4CCC(F)(F)CC4)cc(Br)cc3[N+](=O)[O-])C2)cc(=O)[nH]1 [Example 108] | 10 to 50 nM
14 | O=C(N[C@H]1CCCC[C@H]1Nc1c(C(=O)N2CCC(N3CCOCC3)CC2)cc(Br)cc1C(F)(F)F)c1cncc2cc(Cl)ccc12 [Example 109] | 10 to 50 nM
15 | COCCN1CCN(C(=O)c2cc(Br)cc([N+](=O)[O-])c2N[C@@H]2CCCC[C@@H]2NC(=O)c2cncc3cc(Cl)ccc23)CC1 [Example 111] | < 10 nM
16 | C[C@@H]1CN(C(=O)c2cc(Br)cc(C(F)(F)F)c2N[C@@H]2CCCC[C@@H]2NC(=O)c2cncc3cc(Cl)ccc23)C[C@H](C)O1 [Example 112] | 10 to 50 nM
17 | C[C@@H]1CN(C(=O)c2cc(Br)cc([N+](=O)[O-])c2N[C@@H]2CCCC[C@@H]2NC(=O)c2cncc3cc(Cl)ccc23)C[C@H](C)O1 [Example 113] | < 10 nM
18 | Nc1cncc(C(=O)N2CCC[C@@H](Nc3c(C(=O)N4CCOCC4)cc(Br)cc3[N+](=O)[O-])C2)c1 [Example 114] | 10 to 50 nM
19 | C[C@@H]1CN(C(=O)c2cc(Br)cc([N+](=O)[O-])c2N[C@@H]2CCCN(C(=O)c3cncc(I)c3)C2)C[C@H](C)N1 [Example 115] | 10 to 50 nM
20 | O=C(c1cc(Br)cc([N+](=O)[O-])c1N[C@@H]1CCCN(C(=O)c2cc(=O)[nH]c3ccccc23)C1)N1CCCCC1 [Example 116] | < 10 nM

Row | Structure (SMILES) | IC50
21 | O=C(c1cc(Br)cc([N+](=O)[O-])c1N[C@@H]1CCCN(C(=O)c2cc(=O)[nH]c3cc(Cl)ccc23)C1)N1CCOCC1 [Example 117] | 10 to 50 nM
22 | O=C(N[C@H]1CCCC[C@H]1Nc1c(C(=O)N2CCN(CCO)CC2)cc(Br)cc1[N+](=O)[O-])c1cncc2cc(Cl)ccc12 [Example 118] | 10 to 50 nM
23 | O=C(c1cc(Br)cc([N+](=O)[O-])c1N[C@@H]1CCCN(C(=O)c2cc(=O)[nH]c3ccccc23)C1)N1CCOCC1 [Example 119] | 10 to 50 nM
24 | COCCN1CCN(C(=O)c2cc(Br)cc([N+](=O)[O-])c2N[C@@H]2CCCN(C(=O)c3cncc(I)c3)C2)CC1 [Example 120] | < 10 nM
25 | C[C@@H]1CN(C(=O)c2cc(Br)cc([N+](=O)[O-])c2N[C@@H]2CCCC[C@@H]2NC(=O)c2cc(=O)[nH]c3ccccc23)C[C@H](C)O1 [Example 121] | < 10 nM
26 | O=C(N[C@H]1CCCC[C@H]1Nc1c(C(=O)N2C[C@@H](O)CO2)cc(Br)cc1[N+](=O)[O-])c1cncc2cc(Cl)ccc12 [Example 122] | 10 to 50 nM
27 | CN1CCN(C(=O)c2cc(Br)cc([N+](=O)[O-])c2N[C@@H]2CCCC[C@@H]2NC(=O)c2cncc3cc(Cl)ccc23)CC1 [Example 123] | < 10 nM
28 | O=C(N[C@H]1CCCC[C@H]1Nc1c(C(=O)N2CC3(CCOCC3)C2)cc(Br)cc1[N+](=O)[O-])c1cncc2cc(Cl)ccc12 [Example 124] | 10 to 50 nM
29 | C[C@@H]1CN(C(=O)c2cc(Br)cc([N+](=O)[O-])c2N[C@@H]2CCN(C(=O)c3cncc4cc(Cl)ccc34)C2)C[C@H](C)N1 [Example 125] | < 10 nM
30 | O=C(N[C@H]1CCCC[C@H]1Nc1c(C(=O)N2CC[C@@H](O)C2)cc(Br)cc1C(F)(F)F)c1cncc2cc(Cl)ccc12 [Example 126] | 10 to 50 nM
31 | O=C(c1cc(Br)cc([N+](=O)[O-])c1N[C@@H]1CCCN(C(=O)c2cc(=O)[nH]c3cc(Cl)ccc23)C1)N1CCCCC1 [Example 128] | 10 to 50 nM
32 | C[C@@H]1CN(C(=O)c2cc(Br)cc([N+](=O)[O-])c2N[C@@H]2CCCN(C(=O)c3cc(=O)[nH]c4cc(Cl)ccc34)C2)C[C@H](C)O1 [Example 129] | 10 to 50 nM
33 | C[C@H]1CN(C(=O)c2cc(Br)cc([N+](=O)[O-])c2N[C@@H]2CCCN(C(=O)c3cc(=O)[nH]c4ccccc34)C2)CCO1 [Example 130] | 10 to 50 nM
34 | C[C@@H]1CN(C(=O)c2cc(Br)cc([N+](=O)[O-])c2N[C@@H]2CCCC[C@@H]2NC(=O)c2cncc3cc(Cl)ccc23)C[C@H](C)N1 [Example 131] | 10 to 50 nM
35 | O=C(N[C@H]1CCCC[C@H]1Nc1c(C(=O)N2CCC3(CC2)COC3)cc(Br)cc1[N+](=O)[O-])c1cncc2cc(Cl)ccc12 [Example 132] | 10 to 50 nM
36 | C[C@@H]1CN(C(=O)c2cc(Br)cc([N+](=O)[O-])c2N[C@@H]2CCCN(C(=O)c3cc(=O)[nH]c4ccccc34)C2)C[C@H](C)O1 [Example 133] | 10 to 50 nM
37 | O=C(c1cc(Br)cc([N+](=O)[O-])c1N[C@@H]1CCCN(C(=O)c2cc(=O)[nH]c3ccccc23)C1)N1CCC(N2CCOCC2)CC1 [Example 134] | 10 to 50 nM
38 | C[C@@H]1CN(C(=O)c2cc(Br)cc([N+](=O)[O-])c2N[C@@H]2CCCN(C(=O)c3cncc4cc(Cl)ccc34)C2)C[C@H](C)N1 [Example 135] | 10 to 50 nM
39 | O=C(N[C@H]1CCCC[C@H]1Nc1c(C(=O)N2CCC(N3CCOCC3)CC2)cc(Br)cc1[N+](=O)[O-])c1cc(=O)[nH]c2ccccc12 [Example 136] | < 10 nM
40 | O=C(NN1CCOCC1)c1cc(Br)cc([N+](=O)[O-])c1N[C@@H]1CCCN(C(=O)c2cncc(I)c2)C1 [Example 137] | 10 to 50 nM

Row | Structure (SMILES) | IC50
41 | O=C(c1cc(Br)cc([N+](=O)[O-])c1N[C@@H]1CCCN(C(=O)c2cc(=O)[nH]c3ccccc23)C1)N1CCN(CC(F)(F)F)CC1 [Example 138] | 10 to 50 nM
42 | C[C@@H]1CN(C(=O)c2cc(Br)cc([N+](=O)[O-])c2N[C@@H]2CCCN(C(=O)c3cc(=O)[nH]c4ccccc34)C2)C[C@H](C)N1 [Example 139] | 10 to 50 nM
43 | C[C@@H]1CN(C(=O)c2cc(Br)cc([N+](=O)[O-])c2N[C@@H]2CCCN(C(=O)c3cc(=O)[nH]c4ccccc34)C2)CCO1 [Example 140] | 10 to 50 nM
44 | N[C@@H]1C[C@H](O)CN(C(=O)c2cc(Br)cc([N+](=O)[O-])c2N[C@@H]2CCCC[C@@H]2NC(=O)c2cncc3ccccc23)C1 [Example 141] | 10 to 50 nM
45 | O=C(c1cc(Br)cc([N+](=O)[O-])c1N[C@@H]1CCCN(C(=O)C2CNCc3ccccc32)C1)N1CCOCC1 (stereo partly shown) [Example 142] | 10 to 50 nM
46 | O=C(N[C@H]1CCCC[C@H]1Nc1c(C(=O)N2CCNCC2)cc(Br)cc1C(F)(F)F)c1cncc2cc(Cl)ccc12 [Example 143] | 10 to 50 nM
47 | C[C@@H]1CN(C(=O)c2cc(Br)cc([N+](=O)[O-])c2N[C@@H]2CCCN(C(=O)c3cncc4[nH]ncc34)C2)C[C@H](C)O1 [Example 144] | 10 to 50 nM
48 | C[C@@H]1CN(C(=O)c2cc(Br)cc([N+](=O)[O-])c2N[C@@H]2CCCN(C(=O)C3CCCOC3)C2)C[C@H](C)O1 (stereo partly shown) [Example 145] | 10 to 50 nM
49 | Cc1cc(C(=O)N2CCC[C@@H](Nc3c(C(=O)N4CCN(CC(F)(F)F)CC4)cc(Br)cc3[N+](=O)[O-])C2)cc(=O)[nH]1 [Example 146] | 10 to 50 nM
50 | O=C(N[C@H]1CCCC[C@H]1Nc1c(C(=O)N2CCC(O)CC2)cc(Br)cc1C(F)(F)F)c1cncc2cc(Cl)ccc12 [Example 147] | 10 to 50 nM
51 | Cc1cc(C(=O)N2CCC[C@@H](Nc3c(C(=O)N4CC5CC5C4)cc(Br)cc3[N+](=O)[O-])C2)cc(=O)[nH]1 (stereo partly shown) [Example 148] | 50 to 100 nM
52 | Cc1cc(C(=O)N2CCC[C@@H](Nc3c(C(=O)N4CCCCC4)cc(Br)cc3[N+](=O)[O-])C2)cc(=O)[nH]1 [Example 149] | 10 to 50 nM
53 | O=C(c1cc(Br)[nH]c(=O)c1)N1CCC[C@@H](Nc2c(C(=O)N3CCC(F)(F)CC3)cc(Br)cc2[N+](=O)[O-])C1 [Example 150] | 50 to 100 nM
54 | C[C@@H]1CN(C(=O)c2cc(Br)cc([N+](=O)[O-])c2N[C@@H]2CCCN(C(=O)c3cncc4[nH]cnc34)C2)C[C@H](C)O1 [Example 151] | 10 to 50 nM
55 | C[C@@H]1CN(C(=O)c2cc(Br)cc([N+](=O)[O-])c2N[C@@H]2CCOC[C@@H]2NC(=O)c2cncc3ccccc23)C[C@H](C)O1 [Example 152] | 10 to 50 nM
56 | CNc1cncc(C(=O)N2C[C@H](Nc3c(C(=O)N4CCN(CCOC)CC4)cc(Br)cc3[N+](=O)[O-])C3(CC3)C2)c1 [Example 153] | 10 to 50 nM
57 | Cc1cc(C(=O)N2CC(Nc3c(C(=O)N4CCC5(CCC5)CC4)cc(Br)cc3[N+](=O)[O-])C(F)(F)C2)cc(=O)[nH]1 (stereo not shown) [Example 154] | 50 to 100 nM
58 | Cc1cc(C(=O)N2CC(Nc3c(C(=O)N4CCC(C)(C)CC4)cc(Br)cc3[N+](=O)[O-])C(F)(F)C2)cc(=O)[nH]1 (stereo not shown) [Example 155] | 50 to 100 nM
